# Experimental data taken from paper PMC10855164, “Ligand-Based Design of Selective Peptidomimetic uPA and TMPRSS2 Inhibitors with Arg Bioisosteres” (International Journal of Molecular Sciences, 2024).
# Tests used:
# TMPRSS2 = molecular target: T1, TMPRSS2 (Homo sapiens, UniProt O15393); assay: fluorometric enzyme inhibition assay, TMPRSS2 (Boc-Gln-Ala-Arg-AMC); assay type: biochemical; conditions: for Ki: from IC50 by Cheng-Prusoff, n.a. = not active, <80% inhibition at 20 µM
# T1 construct: purchased Cusabio
# Description: (§1) The inhibitory activity of the synthesized compounds towards the respective main- and off-target proteases was measured via fluorometric and colorimetric assays. Thus, fluorogenic AMC- or colorimetric pNA-based substrates with a peptide sequence suitable for the tested protease were utilized (see Supplementary Figure S2). At first, the compounds were screened against […] proteases (uPA, TMPRSS2, matriptase, tPA, thrombin, factor Xa) at 20 µM, and a cut-off value of 80% inhibition at this concentration was set, for the differentiation between nonactive (n.a.) and active inhibitors. Due to the reversible inhibition mechanism of the ketobenzothiazole derivates, the IC50 values were determined with Graphpad Prism 9, and afterwards converted to the corresponding Ki values for an adequate comparison between the inhibitory activities of the compounds toward all tested proteases. The Ki values were calculated using the Cheng–Prusoff equation [43].
# (§2) Fluorometric inhibition assays
# (§3) The inhibitory activities of the compounds against the proteases were determined by enzyme inhibition assays with fluorogenic or colorimetry-based substrates. The fluorescence, caused by cleaved AMC from the fluorogenic substrates (uPA, matriptase, TMPRSS2, thrombin), was measured in white flat-bottom 96-well plates from Greiner Bio-One using a Tecan Infinite F200 Pro plate reader. The absorption, caused by cleaved pNA from colorimetric substrates (factor Xa and tPA), was measured in transparent flat-bottom 96-well plates from Greiner Bio-One using a Tecan Spark 10M plate reader. All measurements with the main-target proteases (uPA and TMRPSS2) were performed as triplicates and with the off-target proteases (matriptase, factor Xa, tPA, thrombin) as duplicates. The substrates and the compounds were prepared as stock solutions in DMSO. Each well contained a total volume of 200 µL, consisting of 185 µL buffer, 5 µL inhibitor in DMSO or pure DMSO as negative control, 5 µL substrate in DMSO and 5 µL enzyme solution in buffer. Dilution series were prepared for the determination of the inhibition constants. The fluorescence signal and absorbance were measured every 30 s for 10 min at 25 or 37 °C with the corresponding excitation/emission (λex = 380 nm / λem = 460 nm) and absorbance (λabs = 405 nm) wavelengths, depending on the targeted protease. IC50 values for the reversible inhibitors were calculated with Graphpad Prism 9 by fitting the remaining enzymatic activity to the four parameter IC50 equation with Y [%] as the residual enzyme activity , Ymax as the maximum value of the dose response curve at inhibitor concentrations [I] = 0 µM, Ymin as the minimum value at high inhibitor concentrations and s as the hill coefficient.[1] The fluorescence progress curves and sigmoidal dose-response curve for inhibition of uPa by compound 38 is shown exemplary in Figure S2. […]
# (§4) Due to the dependence of the IC50 value on the substrate affinity and concentration, the Ki values were calculated with the Cheng-Prusoff equation, using the final substrate concentration [S] and the Michaelis-Menten constant KM, (2) for appropriate comparison of the inhibitory activities to the other enzymes and inhibitors.[1]
# (§5) KM values were determined by fitting to the Michaelis-Menten equation using Graphpad Prism 9 with v [ΔF/min] as the substrate hydrolysis rate, vmax as the maximum slope of the dose-response curve, and the substrate [S] concentration.[1] The different substrates were serially diluted in DMSO. The measurement was done in analogy to the determination of the inhibitory activity, but with 5 µL pure DMSO instead of inhibitor solution. […]
# (§6) The following buffers and substrates were used for the respective assays: uPA (50 mM Tris HCl pH = 7.9, 150 mM […]
# (§7) TMPRSS2 (25 mM Tris HCl pH = 8.0, 150 mM NaCl, 5 mM CaCl2, 0.001% TX-100, 100 µM Boc-Gln-Ala-Arg-AMC (KM: 68.63 ± 6.64 µM), 25 °C, 3 nM TMPRSS2)[3]; matriptase (50 mM Tris HCl pH = 8.0, 150 mM NaCl, 5 mM CaCl2, […]
# [1] = Parallel Artificial Membrane Permeation Assay (PAMPA); assay type: in vitro ADME; conditions: TRIS 50 mM pH 7.4, 5% DMSO, 7 h at room temperature
# From the text: Following the envisioned applications of the presented inhibitors as drug leads for the treatment of cancer or viral infections, cell permeability is an important factor in the characterization process. […] However, in the organismic contexts of oral bioavailability (facilitated application) and biodistribution (reaching target tissue), adequate permeation is an important quality. To assess this characteristic, PAMPA was used as a suitable model for passive permeation.
# Figure S5: Stability analyses of a representative set of inhibitors. The depictions consist of compound structure and number, then analysis at t0, then analysis after 7 h at room temperature, then analysis after 12 h at 37 °C. […]
# Incubation setup was assembled and left for 7 h at room temperature. Reference solutions were prepared by simply mixing the indicated volumes of donor and acceptor solutions at the start of the incubation period and analyzed later with the acceptor solutions. […]
# Measurement setup for spectroscopy consisted of UV-transparent measurement plate (Greiner UV-Star®, 655801), Tecan Spark 10M® well plate reader, 200 µL sample volume, λ = 200–650 nm. […]
# Measurement setup for LC/MS consisted of Agilent 1100 series HPLC system coupled to an Agilent 1100 series LC/MSD Trap with electron spray ionization (ESI). […] Retention time and mass spectrum recorded in positive ionization mode were used to assign species. […]
# thrombin = molecular target: T2, thrombin (Homo sapiens, UniProt P00734); assay: fluorometric enzyme inhibition assay, thrombin (Z-Gly-Gly-Arg-AMC); assay type: biochemical; conditions: from IC50 by Cheng-Prusoff; n.a. = not active, <80% inhibition at 20 µM
# T2 construct: purchased Bio-techne
# Description: as §1, §2, §3, §4, §5, §6, §7
# factor Xa = molecular target: T3, factor Xa (Homo sapiens, UniProt P00742); assay: colorimetric enzyme inhibition assay, factor Xa (Z-D-Arg-Gly-Arg-pNA); assay type: biochemical; conditions: from IC50 by Cheng-Prusoff; n.a. = not active, <80% inhibition at 20 µM
# T3 construct: purchased Bio-techne
# Description: as §1, §2, §3, §4, §5, §6, §7
# T1 sequence (O15393 whole entry): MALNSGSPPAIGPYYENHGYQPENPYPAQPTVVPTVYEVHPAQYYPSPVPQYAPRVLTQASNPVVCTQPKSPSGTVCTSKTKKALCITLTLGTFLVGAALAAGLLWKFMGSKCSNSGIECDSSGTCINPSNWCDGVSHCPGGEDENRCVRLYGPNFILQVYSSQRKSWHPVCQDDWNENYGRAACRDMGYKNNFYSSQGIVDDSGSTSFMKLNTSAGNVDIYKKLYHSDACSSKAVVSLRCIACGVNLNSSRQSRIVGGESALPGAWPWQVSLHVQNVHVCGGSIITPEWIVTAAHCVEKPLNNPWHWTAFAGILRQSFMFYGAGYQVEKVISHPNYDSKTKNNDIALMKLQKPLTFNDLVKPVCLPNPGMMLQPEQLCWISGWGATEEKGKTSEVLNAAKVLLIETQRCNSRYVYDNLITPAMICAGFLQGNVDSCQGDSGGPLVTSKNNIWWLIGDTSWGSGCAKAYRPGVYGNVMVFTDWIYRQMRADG
# T3 sequence (P00742 235-488 limits assumed): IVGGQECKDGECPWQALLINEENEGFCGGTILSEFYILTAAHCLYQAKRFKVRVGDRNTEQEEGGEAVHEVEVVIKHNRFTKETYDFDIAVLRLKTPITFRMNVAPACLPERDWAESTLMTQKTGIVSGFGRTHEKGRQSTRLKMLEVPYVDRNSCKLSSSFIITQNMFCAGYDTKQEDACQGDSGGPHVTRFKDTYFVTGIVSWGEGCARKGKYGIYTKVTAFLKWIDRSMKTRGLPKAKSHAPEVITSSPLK
# T3 sequence (P00742 41-179 partner limits assumed): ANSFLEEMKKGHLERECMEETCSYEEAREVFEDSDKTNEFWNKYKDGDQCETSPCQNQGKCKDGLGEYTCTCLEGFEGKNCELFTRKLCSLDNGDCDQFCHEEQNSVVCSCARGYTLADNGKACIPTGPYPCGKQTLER
Structure (SMILES),Ki (TMPRSS2) [nM],PAMPA permeability Pe [1],Selectivity index [SI] TMPRSS2 (TMPRSS2; quotient Ki TMPRSS2 / Ki uPA),Ki Thrombin (thrombin),Ki Factor Xa (factor Xa),"Papp at 7 h ([1]; PAMPA, read-out: PAMPA permeability Pe) [×10⁻⁶ cm/s]"
CC(=O)N[C@@H](Cc1ccccc1)C(=O)N[C@@H](Cc1ccc(NC(=N)N)cc1)C(=O)c1nc2ccccc2s1 [Compound 33],5 ± 2,not enough to exert measurable permeability,,,,
CC(=O)NCC(=O)NC(C(=O)NC(C)C(=O)NC(CC1CCC(NC(=N)N)CC1)C(=O)c1nc2ccccc2s1)C(C)O (stereo not shown) [Compound 38],73 ± 16,,1.8,did not inhibit,did not inhibit,< 1
